These results are taken from patent US20150297564A1 (CORNELL UNIVERSITY, priority 2014, published 2015).

Series [1] deals with islets isolated from WT, GKO, SKO, and dKO mice. The series is described as follows: Glucose-stimulated insulin secretion (GSIS) of isolated islets. It is filed as cell-based, mouse. Particulars: for GSIS (insulin secretion) versus solvent control: 16.7 mM glucose, 5 hour pre-treatment. The source says:
(§1) All chemicals were purchased from Sigma (Saint Louis, Mo.) unless indicated otherwise. Detailed protocols, reagents, and instruments for islet isolation, culture, and insulin secretion were the same as described previously (Wang et al., “Molecular Mechanisms for Hyperinsulinaemia Induced by Overproduction of Selenium-Dependent Glutathione Peroxidase-1 in Mice,” Diabetologia 51:1515-1524 (2008), which is hereby incorporated by reference in its entirety). Briefly, Langerhans' islets were isolated from the WT, GKO, SKO, and dKO mice using a standard procedure (Gotoh et al., “An Improved Method for Isolation of Mouse Pancreatic Islets,” Transplantation 40:437-438 (1985), which is hereby incorporated by reference in its entirety) with minor modifications. Isolated islets (50 per sample, n=3 per group) were recovered in RPMI 1640 (Gibco, Grand Island, N.Y.) with 5.5 mM glucose and 10% FBS for 2 hours before treatment. For the islet experiments, ebselen, CuDIPs, and Se (sodium selenite) were used at 50, 10, and 0.1 μM and prepared in DMSO, ethanol, and saline, respectively. The same amounts of vehicle were used as the respective controls. The chemicals were removed after 5 hour incubation, and the islets were transferred to Krebs-Henseleit buffer for 30 min and then incubated for 60 min with 2.8 or 16.7 mM glucose in the same buffer. The supernatants were collected for insulin analysis and the islets were used for mRNA, protein, and enzyme activity analyses.

For series [2], the system named is gk, glut2, pdx1, ucp2 and genes in the ARE, GR, Wnt and NFAT pathways. The series is described as follows: Real time Q-PCR of islet mRNA levels (GSIS regulators, ARE, GR, Wnt, NFAT pathway genes). It is filed as cell-based, mouse. Particulars: dKO islets. The source says: All chemicals were purchased from Sigma (Saint Louis, Mo.) unless indicated otherwise. Detailed protocols, reagents, and instruments for islet isolation, culture, and insulin secretion were the same as described previously (Wang et al., “Molecular Mechanisms for Hyperinsulinaemia Induced by Overproduction of Selenium-Dependent Glutathione Peroxidase-1 in Mice,” Diabetologia 51:1515-1524 (2008), which is hereby incorporated by reference in its entirety). Briefly, Langerhans' islets were isolated from the WT, GKO, SKO, and dKO mice using a standard procedure (Gotoh et al., “An Improved Method for Isolation of Mouse Pancreatic Islets,” Transplantation 40:437-438 (1985), which is hereby incorporated by reference in its entirety) with minor modifications. Isolated islets (50 per sample, n=3 per group) were recovered in RPMI 1640 (Gibco, Grand Island, N.Y.) with 5.5 mM glucose and 10% FBS for 2 hours before treatment. […]
Total RNA was extracted from islets using Trizol reagent (Invitrogen, Carlsbad, Calif.). […] Relative mRNA levels were determined by real time Q-PCR (7900HT; Applied Biosystems, Foster City, Calif.) as previously described (Pepper et al., “Impacts of Dietary Selenium Deficiency on Metabolic Phenotypes of Diet-Restricted GPX1-Overexpressing Mice,” Antioxid. Redox Signal. 14:383-390 (2011), which is hereby incorporated by reference in its entirety).

The subject of another series is PDX1. Nature of the series: Islet PDX1 protein level (Western blot). Type of series: cell-based, mouse.
From the text: as §1
(§2) Islet samples used for Western blot analysis were homogenized in phosphate buffer (50 mM, pH 7.4) containing 0.1% Triton X-100 and protease inhibitor mixture (AEBSF, aprotinin, bestatin hydrochloride, E-64-[N-(transepoxysuccinyl)-L-leucine 4-guanidinobutylamide], leupeptin, and pepstatin A). The homogenates were centrifuged at 14000×g for 10 min at 4° C. A total of 10 μg of protein per lane was subjected to Western blot analysis (McClung et al., “Development of Insulin Resistance and Obesity in Mice Overexpressing Cellular Glutathione Peroxidase,” Proc. Natl. Acad. Sci. USA 101:8852-8857 (2004), which is hereby incorporated by reference in its entirety). After the gel electrophoresis, the separated proteins were transferred onto a protran BA85 nitrocellulose membrane (Schleicher Schuell Bioscience, Keene, N.H.). The membranes were incubated first with respective primary antibodies (rabbit anti-GLUT2, anti-PDX1, and anti-UCP2, Millipore, Billerica, Mass.), and thereafter the second antibody against rabbit IgG (Bio-Rad, Hercules, Calif.). For loading and transfer normalization, the rabbit anti-β-actin antibody (Cell Signaling, Beverly, Mass.) was used. An enhanced chemiluminescent kit (Pierce, Rockford, Ill.) was used for detection of the band intensity.
(In general: Immunoblotting shows a protein as a band on a membrane.)

In a further series the test system is GLUT2. The series is described as follows: Islet GLUT2 protein level (Western blot). Type of series: cell-based, mouse.
From the text: as §1, §2

The next series deals with GK. Nature of the series: Islet GK enzyme activity after treatment. It is filed as cell-based, mouse.
From the text: as §1
(§3) Islet GK activity was assayed at 28° C. by measuring absorbance increases of NADPH at 340 nm in a coupled enzyme system. One unit of GK activity was defined as the amount that catalyzes the formation of 1 μmole of glucose 6-phosphate per minute. Islet and liver LDH activities were measured using a kit from Sigma according to the manufacturer's instructions. Islet and liver GSR activities were measured as previously-described (Zhu et al., “Double Null of Selenium-Glutathione Peroxidase-1 and Copper, Zinc-Superoxide Dismutase Enhances Resistance of Mouse Primary Hepatocytes to Acetaminophen Toxicity,” Exp. Biol. Med. (Maywood) 231:545-552 (2006), which is hereby incorporated by reference in its entirety) and one unit of activity was defined as 1 nmol of glutathione disulfide reduced per minute. Plasma ALT activity was assayed using a kit (Thermo Scientific, Waltham, Mass.) according to the manufacturer's instructions. Plasma AKP activity was measured by the hydrolysis of p-nitrophenol phosphate to p-nitrophenol, and the enzyme activity unit was defined as the amount of activity that releases 1 μmol of p-nitrophenol per minute at 30° C. (Bowers et al., “A Continuous Spectrophotometric Method for Measuring the Activity of Serum Alkaline Phosphatase,” Clin. Chem. 12:70-89 (1966), which is hereby incorporated by reference in its entirety).

The subject of another series is UCP2. Nature of the series: Islet UCP2 protein level (Western blot). Type of series: cell-based, mouse.
From the text: as §1, §2

Series [3] concerns lactate dehydrogenase (LDH). The series is described as follows: Islet LDH activity. As to conditions: WT and GKO islets. Type of series: cell-based, mouse. The method, then:
as §3

In series [4] the target is T1, glutathione reductase (GSR) (Mus musculus, UniProt P47791).
T1 construct: from tissue; host or cells: isolated pancreatic islets of WT and GKO mice
T1 sequence (P47791 27-500): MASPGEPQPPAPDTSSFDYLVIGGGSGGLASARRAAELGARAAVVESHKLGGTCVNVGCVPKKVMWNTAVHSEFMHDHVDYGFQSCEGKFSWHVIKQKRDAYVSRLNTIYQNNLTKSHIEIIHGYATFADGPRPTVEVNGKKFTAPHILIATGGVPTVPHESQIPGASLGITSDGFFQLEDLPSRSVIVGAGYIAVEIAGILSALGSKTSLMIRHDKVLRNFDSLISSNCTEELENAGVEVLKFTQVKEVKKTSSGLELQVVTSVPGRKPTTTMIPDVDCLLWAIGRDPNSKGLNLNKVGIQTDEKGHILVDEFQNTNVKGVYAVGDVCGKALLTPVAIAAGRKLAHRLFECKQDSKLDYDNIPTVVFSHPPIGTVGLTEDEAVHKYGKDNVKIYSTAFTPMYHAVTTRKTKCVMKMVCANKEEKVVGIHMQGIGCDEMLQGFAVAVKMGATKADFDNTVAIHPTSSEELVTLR
Nature of the series: Islet GSR activity. Type of series: cell-based. As to conditions: WT and GKO islets. On the procedure:
as §3

The subject of series [5] is GKO mice. The series is described as follows: Glucose tolerance test (GTT) in GKO mice. As to conditions: fasted GKO mice, 50 mg/kg i.p., glucose 1 g/kg. It is filed as in vivo, mouse. On the procedure: (§4) Ebselen was dissolved in dimethyl sulfoxide (DMSO) and injected with saline (1:1 by volume) together. The same volume of DMSO and saline was used as the solvent control. Blood glucose concentrations were measured by clipping tails and using the Glucometer Elite system (Bayer, Elkhart, Ind.). Plasma insulin concentrations were determined using a rat/mouse Insulin ELISA kit with mouse insulin as standards (Crystal Chem, Downers Grove, Ill.).

For series [6] the following is noted: i.p. in 4% w/v hydroxypropyl-β-cyclodextrin to C57BL/6 mice or suspended in water orally to humans; cited from earlier work.
For series [7], the system named is GKO mice. Nature of the series: Off-target toxicity in GKO mice (plasma ALT, AKP; liver LDH, GSR). Type of series: in vivo, mouse. As to conditions: 50 mg/kg i.p., 1 hour. The method, then:
as §4, §3

For a further series, the system named is intracellular ROS. The series is described as follows: Islet intracellular ROS (DCFH-DA probe). Type of series: cell-based, mouse. Particulars: GKO islets, DCF probe. On the procedure: Islet ROS levels were determined using the fluorescent probe, 2′,7′-dichlorofluorescin diacetate (“DCFH-DA”). Briefly, the treated islets were washed and incubated with DCFH-DA (20 μM) for 10 min at 37° C. After removal of the probe, cells were washed with pre-warmed PBS. Fluorescence was monitored at 488 nm excitation and 525 nm emission wavelengths.

Series [8] deals with GKO mice. Nature of the series: In vivo GSIS test in GKO mice (plasma insulin). Further details: species or system mouse. Particulars: fasted GKO mice. On the procedure: as §4

copper diisopropylsalicylate [CuDIPs]: the “baseline insulin secretion versus solvent control” value in series [1] (SKO islets, 2.8 mM glucose) is “promoted”. Moreover, the results for the “GSIS (insulin secretion) versus solvent control” value in series [1] (SKO islets) and in [1] (WT islets) were “promoted” and “no effect”, respectively. In addition, the “expression of genes in the four pathways (ARE, GR, Wnt, NFAT) versus controls” value in series [2] is recorded as “suppressed”. For the same molecule, the “PDX1 protein elevation versus control” value in the series with PDX1 (SKO islets) was found to be 2.4 fold. In addition, the figures for the “PDX1 protein change versus control (direction)” value in the series on PDX1 (WT islets) and with PDX1 (dKO islets) were “increased” and “Neither CuDIPs nor Na2SeO3 affected”, respectively. In addition, the “GLUT2 protein change versus control (direction)” value is on record as “increase” in the series on GLUT2 (GKO islets), “increased” in the series on GLUT2 (WT islets) and “Neither CuDIPs nor Na2SeO3 affected” in the series with GLUT2 (dKO islets). Moreover, the “GLUT2 protein elevation versus control” value with GLUT2 (SKO islets) came out at 63%. Moreover, the results for the “GK activity change versus control (direction)” value with GK (GKO islets) and in the series with GK (dKO islets) were “decrease” and “Neither CuDIPs nor Na2SeO3 affected”, respectively. The “UCP2 protein decrease versus control” value in the series on UCP2 (SKO islets) came out at 78%. In addition, the results for the “UCP2 protein change versus control (direction)” value in the series with UCP2 (WT islets) and in the series on UCP2 (dKO islets) were “increased” and “Neither CuDIPs nor Na2SeO3 affected”, respectively.
Take `O=c1c2ccccc2[se]n1-c1ccccc1` [ebselen]: the “effect on LDH activity” value in series [3] is listed as “no effect”. For the same molecule, the “effect on GSR activity” value in series [4] is listed as “no effect”. For the same molecule, the figures for the glucose clearance improved with GKO mice [5] (15 min), in the series with GKO mice [5] (30 min) and in the series on GKO mice [5] (60 min) were 17%, 18% and 21%, respectively. Besides, the figures for the “PDX1 protein elevation versus control” value in the series with PDX1 (GKO islets), with PDX1 (SKO islets) and in the series with PDX1 (WT islets) were 4.0 fold, 3.2 fold and 5.5 fold, respectively. The “GLUT2 protein elevation versus control” value in the series with GLUT2 (GKO islets) is 2.1 fold; with GLUT2 (SKO islets), 6.4 fold; in the series on GLUT2 (WT islets), 4.9 fold; in the series with GLUT2 (dKO islets), 85%. For the same molecule, the absorption entry in series [6] is recorded as “absorbed to blood”. In addition, the blood-brain barrier crossing entry in series [6] is on record as “crossed the blood-brain barrier”. The “GK activity elevation versus control” value in the series with GK (GKO islets) was found to be 20%; in the series with GK (SKO islets) it was 86%; in the series with GK (WT islets) it was 74%; in the series on GK (dKO islets), 58%. Also, the “hepatic GSR activity versus control” value with GKO mice [7] is on record as “no differences”. Further, the “hepatic LDH activity versus control” value in the series on GKO mice [7] is “no differences”. Further, the “plasma alanine aminotransferase (ALT) activity versus control” value in the series with GKO mice [7] is recorded as “no differences”. For the same molecule, in the series on GKO mice [7], the “plasma alkaline phosphatase (AKP) activity versus control” value was “no differences”. The “decrease of intracellular ROS” value with intracellular ROS was 74%. Moreover, the “elevation of plasma insulin concentration versus control” value with GKO mice [8] (50 mg/kg i.p. 1 hour before glucose challenge, 0 min (baseline)) was found to be 95%; with GKO mice [8] (50 mg/kg i.p., 15 min after the glucose challenge), 1.2 fold; in the series on GKO mice [8] (50 mg/kg i.p., 30 min after the glucose challenge), 91%.
In the case of `O=[Se]([O-])[O-].[Na+].[Na+]` [Na2SeO3, sodium selenite], the “GSIS (insulin secretion) versus solvent control” value in [1] (GKO islets) was “did not affect”; in [1] (SKO islets), “elevated”; in series [1] (WT islets), “did not affect”; in series [1] (dKO islets), “elevated”. In addition, the “PDX1 protein change versus control (direction)” value in the series on PDX1 (dKO islets) is “Neither CuDIPs nor Na2SeO3 affected”. In addition, the “GLUT2 protein change versus control (direction)” value in the series on GLUT2 (dKO islets) is on record as “Neither CuDIPs nor Na2SeO3 affected”. Also, the “GK activity change versus control (direction)” value was “increased” in the series with GK (GKO islets), “decreased” in the series with GK (SKO islets) and “Neither CuDIPs nor Na2SeO3 affected” in the series on GK (dKO islets). In the series on UCP2 (dKO islets), the “UCP2 protein change versus control (direction)” value was “Neither CuDIPs nor Na2SeO3 affected”.
